Tests used:
Format in all cases: cell-based, human
[1] = system: depigmented skin from vitiligo patients; assay: Ex vivo culture of lesional vitiligo skin biopsies, RT-qPCR of melanoblast / pre-melanocyte markers; conditions: 14 days, SKL2001 40 μM; for mRNA level of early melanoblast marker Brn2 / mRNA level of early melanoblast marker PAX3: CHIR99021 3 μM, LiCl 20 μM
Procedure: (§1) For vitiligo skin biopsies, after verification of the absence of melanocytes with Wood's lamp, two or three 6 mm biopsies composed of dermis plus epidermis were taken into lesional skin from vitiligo patients (n=9). The biopsies are rapidly put on transwell chamber of 0.4 μm (Becton Dickinson) and kept on semi liquid culture conditions in “Skin long term culture medium” (Biopredic). The skin was maintained at 37° C. in a wet 5% CO2, atmosphere.
(§2) The culture medium supplemented with Forskolin (Sigma Aldrich), LiCl (Sigma Aldrich), CHIR99021 (Calbiochem) or SKL2001 (Calbiochem) was changed […] during 14 days.
(§3) mRNA from melanocytes and keratinocytes was extracted with RNeasy kit (Qiagen). The biopsies are cut and disrupted with tissue ruptor (Qiagen) and the mRNA was extracted with RNeasy kit (Qiagen). cDNA were synthesized from 300 ng to 1 μg of mRNA with the Reverse Transcription System (Promega). Relative quantification of gene expression was measured by real time qPCR with Sybr green reagent (Life technology) on Step one system.
(§4) In order to induce the differentiation of melanocyte stem cells, they pharmacologically activated the WNT pathway in vitiligo skin cultured ex vivo as shown previously. They used two methods to activate the WNT pathway: a WNT agonist (SKL2001) and two GSK3β inhibitors: lithium chloride (LiCl) and a commercial specific inhibitor (CHIR99021). They biopsied 9 vitiligo subjects (6 mm punch) on diverse body locations ([…], 2 on trunk, 2 on leg, 1 on arm and 1 on axilla) and treated the ex vivo culture model during 14 days with a systemic stimulation every other day with the WNT activators.
(§5) They evaluated the activation of WNT pathway by the mRNA level of WNTs (TCF/LEF1 and the melanogenesis pathway by the mRNA level of MITF, DCT, PAX3 and BRn2) within the skin.

[2] = system: melanocyte stem cells in depigmented skin from vitiligo patients; assay: Ex vivo depigmented vitiligo skin, immunohistostaining for co-expression of DCT and PAX3; conditions: 14 days, every other day, SKL2001 40 μM, CHIR99021 3 μM, LiCl 20 μM, immunofluorescence
Procedure: Depigmented skin from vitiligo patients [A (control culture medium)] were stimulated in ex vivo culture with WNT agonist SKL2001 (40 μM) (B), GSK3β inhibitor CHIR99021 (3 μM) (C) or GSK3β inhibitor LiCl 20 μM (D) every other day to activate the WNT pathway. After 14 days, the skin response was analyzed by immunohistostaining with pre-melanocytes markers: a DCT staining (green) and PAX3 staining (red).
as §1, §2
Biopsies were fixed with 4% formol, embedded in paraffin, cut with microtome of […] sections and fixed on superfrost plus slides (Thermoscientific). […]

WNT pathway = assay: Ex vivo culture of lesional vitiligo skin biopsies with WNT pathway activators, RT-qPCR of WNT family and LEF; conditions: 14 days, stimulation every other day, CHIR99021 3 μM, LiCl 20 μM, SKL2001 40 μM
Procedure: as §1, §2, §3, §4, §5

[3] = system: whole skin in ex vivo culture; assay: Oxidative stress (H2O2) in whole skin in ex vivo culture: qPCR of LEF and WNT family; conditions: skin biopsies ex vivo, 24 hours, 25 to 100 μM H2O2
Procedure: (§6) NHM (A) and NHK (B) and whole skin in ex vivo culture (C) were stimulated 24 hours with 25 to 100 μM of H2O2. After mRNA extraction, a reverse transcription was performed and the relative gene expression of LEF1 was analyzed with qPCR.
(§7) (A) NHM, (B) NHK and (C) whole skin in ex vivo culture were stimulated 24 hours with 25 to 100 μM of H2O2. After mRNA extraction, a reverse transcription was performed and the relative gene expression of WNT family was analyzed with qPCR.
Skin from abdominoplasty surgery was used to the development of the ex vivo skin culture model. The subcutaneous fat was removed and biopsies of 6 mm were done in the skin composed of dermis and epidermis.
as §3

NHK (keratinocytes) = assay: Oxidative stress (H2O2) in NHK: qPCR of LEF and WNT family, TCF/LEF luciferase reporter; conditions: 24 hours, 25 to 100 μM H2O2
Procedure: as §6, §7
(§8) NHMs and NHKs are obtained from the foreskin of phototype IV children as described previously. Briefly, epidermal cells are obtained by overnight digestion of the skin in a dispase solution (Roche) at 4° C. followed by the digestion of the epidermis in a trypsin/EDTA solution during 20 minutes at 37° C. […]
(§9) mRNA from melanocytes and keratinocytes was extracted with RNeasy kit (Qiagen). […] Relative quantification of gene expression was measured by real time qPCR with Sybr green reagent (Life technology) on Step one system.
(§10) NHK and NHM were co-infected with the lentivirus TCF/LEF Reporter Luciferase and Cignal Lenti Reporter Control Renilla (Qiagen) and the infected cells were selected with Puromycin for 14 days. NHM and NHK selected were stimulated 24 h with SKL2001 and H2O2 and the TCF/LEF activity was measured with Dual Luciferase Reporter Assay System (Promega).

NHM (melanocytes) = assay: Oxidative stress (H2O2) in NHM: qPCR of LEF and WNT family, TCF/LEF luciferase reporter; conditions: 24 hours, 25 to 100 μM H2O2
Procedure: as §6, §7, §8, §9, §10

Row | Structure (SMILES) | mRNA level of early melanoblast marker Brn2 [1] | mRNA level of early melanoblast marker PAX3 [1] | co-expression of DCT and PAX3 (differentiation of melanocyte stem cells into pre-melanocytes) [2] | relative expression of LEF mRNA (WNT pathway) | relative expression of WNT family mRNA (WNT pathway) | expression of LEF [3] | expression of most of the WNT family [3] | expression of LEF (NHK (keratinocytes)) | expression of the majority of WNT (NHK (keratinocytes)) | expression of LEF (NHM (melanocytes)) | expression of the majority of WNT (NHM (melanocytes)) | level of MITF mRNA [1]
1 | Cc1c[nH]c(-c2cnc(NCCNc3ccc(C#N)cn3)nc2-c2ccc(Cl)cc2Cl)n1 [CHIR99021] | up-regulated | up-regulated | melanoblast in differentiation within the dermis | increase | increase | – | – | – | – | – | – | –
2 | OO [H2O2] | – | – | – | – | – | decrease | decrease | decreased | decreased | decreased | decreased | –
3 | O=C(NCCCn1ccnc1)c1cc(-c2ccco2)on1 [SKL2001] | up-regulated | up-regulated | melanoblast in differentiation within the dermis | increase | increase | – | – | – | – | – | – | increased

From patent US10632117B2, “GSK3B and uses thereof in the diagnostic and treatment of hypopigmentation disorders” (INSERM (INSTITUT NATIONAL DE LA SANTE ET DE LA RECHERCHE …, priority 2014, dated 2020)
